Reference: US20200277268A1, “PENTAFLUOROPHENYL SULFONAMIDE COMPOUNDS, COMPOSITIONS AND USES THEREOF” (DALRIADA THERAPEUTICS INC., priority 2017, published 2020)
“Also recorded” adds a separate entry of the source.

Legend:
[1] = test system: LN-18; test: Cell viability, glioblastoma LN-18; type: cell-based; settings: Homo sapiens, glioblastoma cell line
Description: The anti-cancer efficacy of exemplary compounds of the application were assessed in vitro against different cancer cell lines. […] 1×10^4 cells/well were plated in 96-well assay plates in culture medium. […] In some instances, FBS was removed for periods ranging from 16-24 hours, and re-introduced with test compound addition. After 24 hrs, test compounds and vehicle controls were added to appropriate wells such that the final volume was 100 μl in each well. The cells were cultured for the desired test exposure period (72 hours) at 37° C. and 5% CO2. The assay plates were removed from […] incubator and 20 μl/well of CellTiter-Blue® Reagent was added. The plates were incubated using standard cell culture conditions for 1-4 hours. Afterwards, the plates were shaken for 10 seconds and florescence was recorded at 560/590 nm using a Cytation 3 spectrophotometer. IC50 values were determined using non-linear regression analysis with GraphPad Prism 6.0 (GraphPad Software Inc.).

[2] = target: T1, UBA5 (Homo sapiens, UniProt Q9GZZ9); test: MS study of UBA5 covalent adduct; type: binding; settings: 100 μM I-1, 50 μM UBA5
T1 construct: Constructs of full length human UBA5 (1-404) were cloned into a pET28b(+) vector; His-SUMO (N, cleaved yes); made in house; host or cells: E. coli BL21 (DE3) RILP
T1 sequence (Q9GZZ9 whole entry): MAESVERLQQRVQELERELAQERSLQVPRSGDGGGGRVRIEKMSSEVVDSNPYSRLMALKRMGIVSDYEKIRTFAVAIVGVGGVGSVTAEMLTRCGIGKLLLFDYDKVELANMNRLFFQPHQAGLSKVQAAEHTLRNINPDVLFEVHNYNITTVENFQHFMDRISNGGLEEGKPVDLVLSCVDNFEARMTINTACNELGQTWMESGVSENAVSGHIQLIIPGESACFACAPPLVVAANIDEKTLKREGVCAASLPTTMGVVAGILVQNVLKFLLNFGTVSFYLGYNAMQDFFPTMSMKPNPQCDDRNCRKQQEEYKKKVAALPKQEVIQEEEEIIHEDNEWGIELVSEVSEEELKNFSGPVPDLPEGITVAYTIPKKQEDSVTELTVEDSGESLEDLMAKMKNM
Description: To further characterize covalent modification of UBA5 by I-1, samples were incubated as 100 μM I-1 and 50 μM UBA5 (50 mM HEPES, pH 7.4) at 30° C. for 2 hours, followed by storage overnight at 4° C. prior to submission for LC-MS analysis.

[3] = test system: MOLM13; test: CellTiter-Blue cell viability, MOLM13; type: cell-based; settings: Homo sapiens, MOLM-13
Description: (§1) The anti-cancer efficacy of exemplary compounds of the application were assessed in vitro against different cancer cell lines. Cell viability was examined following treatment at various concentrations of inhibitor (0.097656-50 μM) using a CellTiter-Blue® cell viability assay. 1×10^4 cells/well were plated in 96-well assay plates in culture medium. All cells were grown in DMEM, IMDM and RPMI-1640 supplemented with 10% fetal bovine serum (FBS). In some instances, FBS was removed for periods ranging from 16-24 hours, and re-introduced with test compound addition. After 24 hrs, test compounds and vehicle controls were added to appropriate wells such that the final volume was 100 μl in each well. The cells were cultured for the desired test exposure period (72 hours) at 37° C. and 5% CO2. The assay plates were removed from 3° C. incubator and 20 μl/well of CellTiter-Blue® Reagent was added. The plates were incubated using standard cell culture conditions for 1-4 hours. Afterwards, the plates were shaken for 10 seconds and florescence was recorded at 560/590 nm using a Cytation 3 spectrophotometer. IC50 values were determined using non-linear regression analysis with GraphPad Prism 6.0 (GraphPad Software Inc.).

[4] = target: T1, UBA5; test: In vitro transthiolation assay (UFM1-UFC1 conjugate formation); type: biochemical; settings: 50 nM UBA5, 3.5 hours pre-incubation, 0 to 1 μM I-1
Description: UBA5 and test compounds were pre-incubated for a period of 8 hours at 37° C. prior to addition of other assay components. After this period, UFM1, UFC1 and ATP were introduced to initiate the reactions. Final concentrations in the reactions were 250 nM UBA5, 10 μM UFM1, 10 μM UFC1 and 100 μM ATP for total assay volumes of 20 μL, in buffer consisting of 50 mM 4-(2-hydroxyethyl)-1-piperazineethanesulfonic acid (HEPES),), 0.5 mM TCEP, 5 mM MgCl2, at pH 7.4. A final concentration of 10% (v/v) DMSO was present in all reactions. The reactions were allowed to proceed for 1 hour before stopping with 4× Laemmli buffer (Bio-Rad 1610747). Samples were then run on 4-20% non-reducing SDS-PAGE stain-free gels to separate protein conjugates. Gels were subsequently imaged using Stain-free imaging technology (Bio-Rad). Image Lab software was used to quantify the intensity of the UFM1-UFC1 conjugate bands to controls with no inhibitor present and reported as % inhibition values.
I-1 was evaluated as well using differing transthiolation assay conditions, with a reduction in UBA5 concentration to 50 nM and a pre-incubation period of 3.5 hours at 37° C. of UBA5 with I-1. This was followed by a 30 minute reaction time after UFM1, UFC1 and ATP addition. A final concentration of 5% (v/v) DMSO was used.

[5] = test system: primary human fibroblast cells (PHF); test: CellTiter-Blue cell viability, PHF; type: cell-based; settings: non-cancerous, 72 hours
Description: as §1

[6] = test system: AR230R; test: Cell viability, CML AR230R; type: cell-based; settings: Table 4
Description: as §1, with “Inc.). […]” for “Inc.).”

[7] = in vitro; settings: male, mouse
Description: The reaction mixture was constituted with 100 mM phosphate buffer, ultra-pure H2O, 5 mM MgCl2 solution, 10 mM NADPH solution and 1 mg/mL S9 fraction. This mixture was then pre-warmed at 37° C. for 5 minutes. […] Aliquots of 50 μL were taken from the reaction solution at 0, 15, 30, 45 and 60 minutes. The aliquoted reaction solutions were stopped by the addition of a mixture of cold methanol and IS (100 nM alprazolam, 200 nM imipramine, 200 nM labetalol and 2 μM ketoprofen). The samples were then centrifuged at 3220 g for 40 minutes. Afterwards, aliquots of 90 μL of the supernatant for each sample was mixed with 90 μL of ultra-pure water and subjected to liquid chromatography tandem mass spectrometry (LC-MS/MS) analysis.
Injection volume was 10 μL.

[8] = test system: ATCC3034; test: Cell viability, medulloblastoma ATCC3034; type: cell-based; settings: medulloblastoma cell line
Description: as §1, with “Inc.). […]” for “Inc.).”

[9] = test system: healthy human lung cells (MRC9); test: CellTiter-Blue cell viability, MRC9; type: cell-based; settings: non-cancerous, 72 hours
Description: as §1

[10] = test system: tubulin; test: Tubulin polymerization assay; type: biochemical; settings: 10 μM compound, optical density 340 nm

IC50 [1]: 4.92 µM
UBA5 covalent adduct formation by MS [2]: covalent adduct formation
IC50 ([3]; AML cell line, 72 hours): 1.5 µM
IC50 ([3]; AML, Table 4): 2.5 µM
half-life at 2 μM ([7]; s9): 232 h
microsomal CLint at 2 μM ([7]; s9): 0.05 µL/min/mg
Remaining Percentage 0 min ([7]; s9, 0 h, 2 μM): 100.00%
IC50 [8]: 0.8 µM
SMILES: O=S(=O)(c1c(F)c(F)c(F)c(F)c1F)N(Cc1ccc(F)cc1)C1CC1 [Compound I-1, N-cyclopropyl-2,3,4,5,6-pentafluoro-N-(4-fluorobenzyl)benzenesulfonamide]
UFM1-UFC1 conjugate formation [4]: no conjugate formation at sub-micromolar concentrations
IC50 [5]: 3.4 µM
IC50 [6]: 1.5 µM
IC50 [9]: 25 µM
inhibition of tubulin polymerization [10]: Negligible inhibition; also recorded: no significant inhibitory action
